Assay results taken from patent publication EP3495350B1, “COMPOUND INHIBITING FORMATION OF C-MYC/MAX/DNA COMPLEX” (National Cancer Center, priority 2016, dated 2018).

How the values were obtained:
zebrafish = assay: Cardiotoxicity experiment using zebrafish (heart rate, lethality); type: in vivo; details: n=10; for Changes in heart rate (%): mean
[1] = Single toxicity test (IV and IP single dose); type: in vivo, Mouse; details: 40 mg/kg
recombinant c-Myc/Max = assay: Protein assay: electrophoretic mobility shift assay (EMSA) of DNA binding of c-Myc/Max; type: biochemical
Description: Recombinant proteins were prepared as described in the following references: K. C. Jung et al., Fatty Acids, Inhibitors for the DNA Binding of c-Myc/Max Dimer, Suppress Proliferation and Induce Apoptosis of Differentiated HL-60 Human Leukemia Cell, Leukemia, 2006, 20(1), 122-7 or Kyung-Chae Jeong et al., Small-Molecule Inhibitors of c-Myc Transcriptional Factor Suppress Proliferation and Induce Apoptosis of Promyelocytic Leukemia Cell via Cell Cycle Arrest, Mol. BioSyst., 2010, 6, 1503-1509.
The inhibitory activity of each candidate compound on DNA binding of recombinant c-Myc/Max was measured using an electrophoretic mobility shift assay (EMSA). The ratio of protein-DNA complexes in each sample was evaluated by measuring band intensity. The oligonucleotides (E-box, 5'-biotin-[…]-3'-biotin) corresponding to the consensus binding site of Myc/Max were dimerized through an annealing process. The protein mixture was incubated at room temperature for 5 minutes, and a DMSO solution containing each candidate compound was added thereto. The mixture was further incubated for 5 minutes, and the biotinylated DNA was added. To achieve a state of equilibrium, the final mixture was incubated at room temperature for 10 minutes. […] Each band was visualized using HRP-conjugated streptavidin and an ECL solution, and band intensity was measured using image analysis software.

MBT-2 = assay: Cell based assay, cell viability (CellTiter-Glo), MBT-2; details: 72 hours, 0 to 2 µM; read-out: cell based assay cell line 1 MBT-2 IC50
Description: (§1) Commercially available bladder cancer cell lines were treated with trypsin-EDTA and seeded in each well of a 96 well plate, followed by incubation for 24 hours. After incubation, candidate compounds were added to each well at a final concentration of 0 to 2 µM. The compound-treated cells were further incubated for 72 hours. Cell viability was measured using an ATP detection method (CellTiter-Glo Luminescent Cell Viability Assay, Promega).
(§2) The selectivity of the compounds of the present disclosure to cancer cells was evaluated in the same manner as described in "2. Cell based assay".

KU19-19 = assay: Cell based assay, cell viability (CellTiter-Glo), KU19-19; details: Homo sapiens, KU-19-19; 72 hours, 0 to 2 µM; read-out: cell based assay cell line 2 KU19-19 IC50
Description: as §1, §2

253J = assay: Cell based assay, cell viability (CellTiter-Glo), 253J; details: Homo sapiens; 72 hours, 0 to 2 µM; read-out: cell based assay cell line 3 253J IC50
Description: as §1, §2

UM-UC-3 = assay: Cell based assay, cell viability (CellTiter-Glo), UM-UC-3; details: Homo sapiens, UMUC3; 72 hours, 0 to 2 µM; read-out: cell based assay cell line 4 UM-UC-3 IC50
Description: as §1, §2

[2] = Cell based assay, cell viability (CellTiter-Glo), RT4 (selectivity); details: human, rt4 cells; selectivity evaluation, Table 6; benign; read-out: Cytotoxicity (µM) RT4
Description: as §1, with “After incubation, candidate compounds were added to each well at a final concentration of 0 to 2 µM.” left out
as §2

Structure (SMILES)	IC50 (MBT-2)	IC50 (KU19-19)	IC50 (253J)	IC50 (UM-UC-3)	also measured
COc1ccc(CCN2CCC(Nc3nc4ccccc4n3Cc3ccc(F)cc3)CC2)cc1 [Astemizole, reference compound]					Changes in heart rate (%) (zebrafish; 10 µM): 46.2%; Lethality (zebrafish; 10 µM): 0/10
CC(=O)c1c([S+]([O-])Cc2ccccc2)nc2c(Br)ccc(Cl)c2c1O (stereo not shown) [Compound 4, 3-acetyl-2-(benzylsulfinyl)-8-bromo-5-chloroquinolin-4(1H)-one]	0.96 µM	1.05 µM	1 µM	1.33 µM	deaths ([1]; IV and IP single-dose administration of 40 mpk): no deaths; General symptoms (feed intake, drinking water intake) ([1]; mouse, in vivo): no abnormal symptoms; Weight changes ([1]; mouse, in vivo): no significant weight changes; Percentage ([1]; mouse, in vivo, ip): 0 (0/2); mortality ([1]; mouse, in vivo, ip): 0%; Percentage ([1]; mouse, in vivo, iv): 0 (0/2); mortality ([1]; mouse, in vivo, iv): 0%; Changes in heart rate (%) (zebrafish; 5 µM): 88.5%; Lethality (zebrafish; 5 µM): 1/10; IC50 (recombinant c-Myc/Max): < 1 µM; CC50 at 72 h [2]: > 10 µM
CC(=O)c1c([S+]([O-])Cc2ccc([N+](=O)[O-])cc2)[nH]c2c(Br)ccc(Cl)c2c1=O (stereo not shown) [Compound 33, 3-acetyl-8-bromo-5-chloro-2-((4-nitrobenzyl)sulfinyl)quinolin-4(1H)-one]	0.9 µM	1.42 µM	1.39 µM	1.11 µM	Changes in heart rate (%) (zebrafish; 5 µM): 97.3%; Lethality (zebrafish; 5 µM): 0/10; Note (heart rate inhibition) (zebrafish; 5 µM): No significant heart rate inhibition; CC50 at 72 h [2]: > 10 µM
CC(=O)c1c(S(=O)(=O)Cc2ccccc2)nc2c(Br)ccc(Cl)c2c1O [Compound 54, 1-(2-(benzylsulfonyl)-8-bromo-5-chloro-4-hydroxyquinolin-3-yl)ethan-1-one]	> 2 µM	> 2 µM	> 2 µM	> 2 µM	IC50 (recombinant c-Myc/Max): < 1 µM
CC(=O)c1c([S+]([O-])Cc2ccc(C#N)s2)[nH]c2c(Br)ccc(Cl)c2c1=O (stereo not shown) [Compound 98, 5-(((3-acetyl-8-bromo-5-chloro-4-oxo-1,4-dihydroquinolin-2-yl)sulfinyl)methyl)thiophene-2-carbonitrile]	0.84 µM	1.9 µM	1.38 µM	1.52 µM	
CC(=O)c1c([S+]([O-])Cc2ccc(-n3cccn3)nc2)[nH]c2c(Br)ccc(Cl)c2c1=O (stereo not shown) [Compound 99, 2-(((6-(1H-pyrazol-1-yl)pyridin-3-yl)methyl)sulfinyl)-3-acetyl-8-bromo-5-chloroquinolin-4(1H)-one]	0.47 µM	1.12 µM	0.8 µM	0.77 µM	
CC(=O)c1c([S+]([O-])Cc2ccc(N)nc2)[nH]c2c(Br)ccc(Cl)c2c1=O (stereo not shown) [Compound 100, 3-acetyl-2-(((6-aminopyridin-3-yl)methyl)sulfinyl)-8-bromo-5-chloroquinolin-4(1H)-one]	> 2 µM	> 2 µM	> 2 µM	> 2 µM	
O=C(c1c([S+]([O-])Cc2ccc(SC(F)(F)F)cc2)[nH]c2c(Br)ccc(Cl)c2c1=O)C1CC1 (stereo not shown) [Compound 101, 8-bromo-5-chloro-3-(cyclopropanecarbonyl)-2-((4-((trifluoromethyl)thio)benzyl)sulfinyl)quinolin-4(1H)-one]	> 2 µM	> 2 µM	1.82 µM	1.93 µM	
CC(=O)c1c([S+]([O-])Cc2ccc(C(F)(F)F)nc2C)[nH]c2c(Br)ccc(Cl)c2c1=O (stereo not shown) [Compound 102, 3-acetyl-8-bromo-5-chloro-2-(((2-methyl-6-(trifluoromethyl)pyridin-3-yl)methyl)sulfinyl)quinolin-4(1H)-one]	0.77 µM	1.58 µM	0.83 µM	1.07 µM	
CC(=O)c1c([S+]([O-])Cc2ccc(NS(C)(=O)=O)cc2)[nH]c2c(Br)ccc(Cl)c2c1=O (stereo not shown) [Compound 103, N-(4-(((3-acetyl-8-bromo-5-chloro-4-oxo-1,4-dihydroquinolin-2-yl)sulfinyl)methyl)phenyl)methanesulfonamide]	> 2 µM	> 2 µM	> 2 µM	> 2 µM	
CC(=O)c1c([S+]([O-])Cc2ccc(Cl)nc2)[nH]c2c(Br)ccc(Cl)c2c1=O (stereo not shown) [Compound 104, 3-acetyl-8-bromo-5-chloro-2-(((6-chloropyridin-3-yl)methyl)sulfinyl)quinolin-4(1H)-one]	0.71 µM	1.5 µM	0.87 µM	1.13 µM	
COCCNc1ccc(C[S+]([O-])c2[nH]c3c(Br)ccc(Cl)c3c(=O)c2C(C)=O)cn1 (stereo not shown) [Compound 105, 3-acetyl-8-bromo-5-chloro-2-(((6-((2-methoxyethyl)amino)pyridin-3-yl)methyl)sulfinyl)quinolin-4(1H)-one]	> 2 µM	> 2 µM	> 2 µM	> 2 µM	
CC(=O)c1c([S+]([O-])Cc2nonc2C)[nH]c2c(Br)ccc(Cl)c2c1=O (stereo not shown) [Compound 106, 3-acetyl-8-bromo-5-chloro-2-(((4-methyl-1,2,5-oxadiazol-3-yl)methyl)sulfinyl)quinolin-4(1H)-one]	> 2 µM	> 2 µM	> 2 µM	> 2 µM	
CC(=O)c1c([S+]([O-])Cc2cnc3[nH]ccc3c2)[nH]c2c(Br)ccc(Cl)c2c1=O (stereo not shown) [Compound 107, 2-(((1H-pyrrolo[2,3-b]pyridin-5-yl)methyl)sulfinyl)-3-acetyl-8-bromo-5-chloroquinolin-4(1H)-one]	> 2 µM	> 2 µM	> 2 µM	> 2 µM	
